Measured values published in patent US20160237067A1, “SUBSTITUTED PHENYLALANINE DERIVATIVES” (BAYER PHARMA AKTIENGESELLSCHAFT, priority 2013, published 2016).
Structures can show the parent of a compound that is named as a salt.

Assays:
human and animal plasma = test: Determination of anticoagulatory activity: activated partial thromboplastin time (aPTT) in plasma; type: biochemical; conditions: C.K. Prest kit, 37° C., 3 minutes incubation, plasma species of Table B not stated
Procedure: The anticoagulatory activity of the test substances is determined in vitro in human and animal plasma (for example mouse, rat, rabbit, pig and dog plasma). To this end, blood is drawn off in a mixing ratio of sodium citrate/blood of 1:9 using a 0.11 molar sodium citrate solution as receiver. Immediately after the blood has been drawn off, it is mixed thoroughly and centrifuged at about 4000 g for 15 minutes. The supernatant is pipetted off.
The activated partial thromboplastin time (aPTT) is determined in the presence of varying concentrations of test substance or the corresponding solvent using a commercial test kit (C.K. Prest from Diagnostica Stago). The test compounds are incubated with the plasma and the PTT reagent (cephalin, kaolin) at 37° C. for 3 minutes. Coagulation is then started by addition of a 25 mM aqueous calcium chloride solution, and the time when coagulation occurs is determined. The concentration of test substance which brings about a 1.5-fold extension of the aPTT is determined Activity data from this test are listed in Table B below: […]

human factor XIa = target: T1, human factor XIa (Homo sapiens, UniProt P03951); test: Measurement of FXIa inhibition (fluorogenic peptide substrate Boc-Glu(OBzl)-Ala-Arg-AMC); type: biochemical; conditions: factor XIa from Kordia 0.45 nM; 15 min preincubation; 30 min at 22° C.
T1 construct: purchased Kordia
T1 sequence (P03951 388-625 limits assumed): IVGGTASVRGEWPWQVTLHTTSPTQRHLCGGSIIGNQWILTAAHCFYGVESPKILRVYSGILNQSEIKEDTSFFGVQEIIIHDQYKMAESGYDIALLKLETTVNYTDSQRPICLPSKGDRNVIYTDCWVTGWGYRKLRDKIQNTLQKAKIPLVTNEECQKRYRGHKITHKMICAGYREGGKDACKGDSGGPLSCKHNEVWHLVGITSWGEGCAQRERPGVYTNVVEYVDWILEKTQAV
T1 sequence (P03951 19-387 partner limits assumed): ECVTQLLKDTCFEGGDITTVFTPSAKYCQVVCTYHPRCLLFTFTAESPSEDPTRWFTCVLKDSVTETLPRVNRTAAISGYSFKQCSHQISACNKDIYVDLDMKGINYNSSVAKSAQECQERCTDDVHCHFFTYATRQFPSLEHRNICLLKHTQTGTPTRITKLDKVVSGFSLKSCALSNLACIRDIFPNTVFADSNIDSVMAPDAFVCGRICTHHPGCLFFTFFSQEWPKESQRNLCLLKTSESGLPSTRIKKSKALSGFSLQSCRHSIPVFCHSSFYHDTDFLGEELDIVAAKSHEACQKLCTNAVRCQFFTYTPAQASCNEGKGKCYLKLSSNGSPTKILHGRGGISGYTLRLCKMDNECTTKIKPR
Procedure: The factor XIa inhibition of the substances according to the invention is determined using a biochemical test system which utilizes the reaction of a peptidic factor XIa substrate to determine the enzymatic activity of human factor XIa. Here, factor XIa cleaves from the peptic factor XIa substrate the C-terminal aminomethylcoumarin (AMC), the fluorescence of which is measured. The determinations are carried out in microtitre plates.
Test substances are dissolved in dimethyl sulphoxide and serially diluted in dimethyl sulphoxide (3000 μM to 0.0078 μM; resulting final concentrations in the test: 50 μM to 0.00013 μM). In each case 1 μl of the diluted substance solutions is placed into the wells of white microtitre plates from Greiner (384 wells). Subsequently, the following are added successively: 20 μl of assay buffer (50 mmol/l Tris buffer pH 7.4; 100 mmol/l sodium chloride; 5 mmol/l calcium chloride; 0.1% bovine serum albumin) and 20 μl of factor XIa from Kordia (0.45 nM in assay buffer). After 15 min of incubation, the enzyme reaction is started by addition of 20 μl of the factor XIa substrate Boc-Glu(OBzl)-Ala-Arg-AMC dissolved in assay buffer (10 μM in assay buffer) from Bachem, the mixture is incubated at room temperature (22° C.) for 30 min and fluorescence is then measured (excitation: 360 nm, emission: 460 nm). The measured emissions of the test batches with test substance are compared to those of control batches without test substance (only dimethyl sulphoxide instead of test substance in dimethyl sulphoxide), and IC50 values are calculated from the concentration/activity relationships.

Row | IC50 (human factor XIa) [nM] | SMILES | aPTT (concentration of test substance which brings about a 1.5-fold extension of the aPTT) (human and animal plasma) [µmol/L]
1 | 4.1 | Cc1cc(C(=O)NC2CCN(C)CC2)cc(-c2ccc(C[C@H](NC(=O)[C@H]3CC[C@H](CN)CC3)C(=O)Nc3ccc(-c4nn[nH]n4)cc3)cc2)c1C [Example 34, 4′-[(2S)-2-({[trans-4-(Aminomethyl)cyclohexyl]carbonyl}amino)-3-oxo-3-{[4-(2H-tetrazol-5-yl)phenyl]amino}propyl]-5,6-dimethyl-N-(1-methylpiperidin-4-yl)biphenyl-3-carboxamide hydrochloride] | 0.06
2 | 4.1 | Cc1ccc(-c2ccc(C[C@H](NC(=O)[C@H]3CC[C@H](CN)CC3)C(=O)Nc3ccc(-c4nn[nH]n4)cc3)cc2)cc1C(=O)N1CCOCC1 [Example 38, trans-4-(Aminomethyl)-N-[(2S)-3-[4′-methyl-3′-(morpholin-4-ylcarbonyl)biphenyl-4-yl]-1-oxo-1-{[4-(2H-tetrazol-5-yl)phenyl]amino}propan-2-yl]cyclohexanecarboxamide hydrochloride] | 0.22
3 | 4.7 | Cc1ccc(C(=O)N[C@H]2CC[C@H](O)CC2)cc1-c1ccc(C[C@H](NC(=O)[C@H]2CC[C@H](CN)CC2)C(=O)Nc2ccc(-c3nn[nH]n3)cc2)cc1 [Example 32, 4′-[(2S)-2-({[trans-4-(Aminomethyl)cyclohexyl]carbonyl}amino)-3-oxo-3-{[4-(2H-tetrazol-5-yl)phenyl]amino}propyl]-N-(trans-4-hydroxycyclohexyl)-6-methylbiphenyl-3-carboxamide hydrochloride] | 0.15
4 | 10 | NC[C@H]1CC[C@H](C(=O)N[C@@H](Cc2ccc(-c3ccc(F)c(C(=O)NC4CCNCC4)c3)cc2)C(=O)Nc2ccc(-c3nn[nH]n3)cc2)CC1 [Example 35, 4′-[(2S)-2-({[trans-4-(Aminomethyl)cyclohexyl]carbonyl}amino)-3-oxo-3-{[4-(2H-tetrazol-5-yl)phenyl]amino}propyl]-4-fluoro-N-(piperidin-4-yl)biphenyl-3-carboxamide hydrochloride] | 0.2

The remaining lines, values behind:

Row | SMILES | IC50 (human factor XIa) [nM] | aPTT (concentration of test substance which brings about a 1.5-fold extension of the aPTT) (human and animal plasma) [µmol/L]
5 | Cc1c(F)cc(C(=O)NC2CCNCC2)cc1-c1ccc(C[C@H](NC(=O)[C@H]2CC[C@H](CN)CC2)C(=O)Nc2ccc(-c3nn[nH]n3)cc2)cc1 [Example 31, 4′-[(2S)-2-({[trans-4-(Aminomethyl)cyclohexyl]carbonyl}amino)-3-oxo-3-{[4-(2H-tetrazol-5-yl)phenyl]amino}propyl]-5-fluoro-6-methyl-N-(piperidin-4-yl)biphenyl-3-carboxamide hydrochloride] | 4.5 | 0.16
6 | Cc1ccc(C#N)cc1-c1ccc(C[C@H](NC(=O)[C@H]2CC[C@H](CN)CC2)C(=O)Nc2ccc(-c3nn[nH]n3)cc2)cc1 [Example 21, trans-4-(Aminomethyl)-N-[(2S)-3-(5′-cyano-2′-methylbiphenyl-4-yl)-1-oxo-1-{[4-(2H-tetrazol-5-yl)phenyl]amino}propan-2-yl]cyclohexanecarboxamide hydrochloride] | 8.3 | 0.22
7 | NC[C@H]1CC[C@H](C(=O)N[C@@H](Cc2ccc(-c3cccc(S(N)(=O)=O)c3)cc2)C(=O)Nc2ccc(-c3nnn[nH]3)cc2)CC1 [Example 4, trans-4-(Aminomethyl)-N-[(2S)-1-oxo-3-(3′-sulphamoylbiphenyl-4-yl)-1-{[4-(1H-tetrazol-5-yl)phenyl]amino}propan-2-yl]cyclohexanecarboxamide hydrochloride] | 3.1 | 0.16
8 | Cc1ccc(-c2ccc(C[C@H](NC(=O)[C@H]3CC[C@H](CN)CC3)C(=O)Nc3ccc(-c4nn[nH]n4)cc3)cc2)cc1NC(=O)C1CCNCC1 [Example 22, N-{4[(2S)-2-({[trans-4-(Aminomethyl)cyclohexyl]carbonyl}amino)-3-oxo-3-{[4-(2H-tetrazol-5-yl)phenyl]amino}propyl]-4-methylbiphenyl-3-yl}piperidine-4-carboxamide hydrochloride] | 25 | 0.34
9 | NC[C@H]1CC[C@H](C(=O)N[C@@H](Cc2ccc(-c3cccc(C(=O)N4CCNCC4)c3F)cc2)C(=O)Nc2ccc(-c3nn[nH]n3)cc2)CC1 [Example 18, trans-4-(Aminomethyl)-N-[(2S)-3-[2′-fluoro-3′-(piperazin-1-ylcarbonyl)biphenyl-4-yl]-1-oxo-1-{[4-(2H-tetrazol-5-yl)phenyl]amino}propan-2-yl]cyclohexanecarboxamide hydrochloride] | 16 | 0.35
10 | CCOC(=O)c1cccc(-c2ccc(C[C@H](NC(=O)[C@H]3CC[C@H](CN)CC3)C(=O)Nc3ccc(-c4nn[nH]n4)cc3)cc2)c1F [Example 8, Ethyl 4′-[(2S)-2-({[trans-4-(aminomethyl)cyclohexyl]carbonyl}amino)-3-oxo-3-{[4-(2H-tetrazol-5-yl)phenyl]amino}propyl]-2-fluorobiphenyl-3-carboxylate hydrochloride] | 6.9 | 0.51
11 | NC[C@H]1CC[C@H](C(=O)N[C@@H](Cc2ccc(-c3cccc(C(=O)NC4CCNCC4)c3F)cc2)C(=O)Nc2ccc(-c3nn[nH]n3)cc2)CC1 [Example 15, 4′-[(2S)-2-({[trans-4-(Aminomethyl)cyclohexyl]carbonyl}amino)-3-oxo-3-{[4-(2H-tetrazol-5-yl)phenyl]amino}propyl]-2-fluoro-N-(piperidin-4-yl)biphenyl-3-carboxamide hydrochloride] | 10 | 0.52
12 | NC[C@H]1CC[C@H](C(=O)N[C@@H](Cc2ccc(-c3cccc(C(=O)NC4CCNCC4)c3)cc2)C(=O)Nc2ccc(-c3nn[nH]n3)cc2)CC1 [Example 13, 4′-[(2S)-2-({[trans-4-(Aminomethyl)cyclohexyl]carbonyl}amino)-3-oxo-3-{[4-(2H-tetrazol-5-yl)phenyl]amino}propyl]-N-(piperidin-4-yl)biphenyl-3-carboxamide hydrochloride] | 17 | 0.28
13 | NC[C@H]1CC[C@H](C(=O)N[C@@H](Cc2ccc(-c3cccc(C(=O)NCCN4CCOCC4)c3)cc2)C(=O)Nc2ccc(-c3nnn[nH]3)cc2)CC1 [Example 27, 4′-[(2S)-2-({[trans-4-(Aminomethyl)cyclohexyl]carbonyl}amino)-3-oxo-3-{[4-(1H-tetrazol-5-yl)phenyl]amino}propyl]-N-[2-(morpholin-4-yl)ethyl]biphenyl-3-carboxamide hydrochloride] | 6 | 0.19
